Measured values taken from ChEMBL document CHEMBL1201862, “PubChem BioAssay data set” (2004).
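The compound was tested at five concentrations on cells cultured in 96-well plates, with a 48-hour exposure period. Here, GI50 denotes the concentration required for 50% inhibition of growth.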 Active and inactive are the calls of the source. No stated cut-off is given here; in the data, active = GI50 up to about 1.1 µM and inactive = higher.

Columns and labels:
Assay in all cases: NCI-60 cell line screen, 48 h
HOP-62 = test system: HOP-62
ACHN = test system: ACHN
CCRF-CEM = test system: CCRF-CEM
EKVX = test system: EKVX
SK-OV-3 = test system: SK-OV-3
NCI-H226 = test system: NCI-H226
Malme-3M = test system: Malme-3M
OVCAR-8 = test system: OVCAR-8
MDA-MB-231 = test system: MDA-MB-231
RPMI-8226 = test system: RPMI-8226
SK-MEL-28 = test system: SK-MEL-28
NCI-H23 = test system: NCI-H23
KM12 = test system: KM12
Hs-578T = test system: Hs-578T
SK-MEL-5 = test system: SK-MEL-5
HCC 2998 = test system: HCC 2998
SF-268 = test system: SF-268
T47D = test system: T47D
M14 = test system: M14
PC-3 = test system: PC-3

Structure (SMILES)	GI50 (HOP-62)	GI50 (ACHN)	GI50 (CCRF-CEM)	GI50 (EKVX)	GI50 (SK-OV-3)	GI50 (NCI-H226)	GI50 (Malme-3M)	GI50 (OVCAR-8)	GI50 (MDA-MB-231)	GI50 (RPMI-8226)	GI50 (SK-MEL-28)	GI50 (NCI-H23)	GI50 (KM12)	GI50 (Hs-578T)	GI50 (SK-MEL-5)	GI50 (HCC 2998)	GI50 (SF-268)	GI50 (T47D)	GI50 (M14)	GI50 (PC-3)
C/C(=C\CBr)CCC(Br)C(C)(C)Br (stereo not given)	> 100 µM (inactive)	> 100 µM (inactive)	> 100 µM (inactive)	> 100 µM (inactive)	> 100 µM (inactive)	> 100 µM (inactive)	> 100 µM (inactive)	> 100 µM (inactive)	> 100 µM (inactive)	> 100 µM (inactive)	> 100 µM (inactive)	> 100 µM (inactive)	> 100 µM (inactive)	> 100 µM (inactive)	> 100 µM (inactive)	> 100 µM (inactive)	> 100 µM (inactive)	> 100 µM (inactive)	> 100 µM (inactive)	> 100 µM (inactive)
C=C1[C@H](OCC(C)C)[C@@H](O)[C@@H](OC(=O)c2cccnc2)C(C)(C)/C=C/[C@H](C)[C@H](OC(C)=O)[C@@]2(O)C[C@@](C)(OC(C)=O)[C@H](OC(=O)c3ccccc3)[C@@H]2[C@H]1OC(C)=O	0.0681 µM (active)	0.161 µM (active)	0.133 µM (active)	1.04 µM (active)	> 3.02 µM (inactive)	1.39 µM (inactive)	0.187 µM (active)	1.22 µM (inactive)	> 2.54 µM (inactive)	0.741 µM (active)	1.14 µM (inactive)	1.95 µM (inactive)	1.34 µM (inactive)	0.0895 µM (active)	0.332 µM (active)	0.19 µM (active)	> 1.49 µM (inactive)	> 2.96 µM (inactive)	0.977 µM (active)	1.66 µM (inactive)
CCOC(=O)c1nc(SC)sc1NC(=O)c1ccc(OC)cc1	34.7 µM (inactive)	47.8 µM (inactive)	> 100 µM (inactive)	> 100 µM (inactive)	63.1 µM (inactive)	28.1 µM (inactive)	35.3 µM (inactive)	58.7 µM (inactive)	35.2 µM (inactive)	> 100 µM (inactive)	75 µM (inactive)	> 100 µM (inactive)	> 100 µM (inactive)	> 100 µM (inactive)	> 100 µM (inactive)	43.6 µM (inactive)	> 100 µM (inactive)	98.2 µM (inactive)	> 100 µM (inactive)	> 100 µM (inactive)
CC1(O)CC2(O)C=CC3=C(C(=O)c4cccc(O)c4C3=O)C2(O)C(=O)C1O (stereo not given)	21.6 µM (inactive)	1.63 µM (inactive)	0.206 µM (active)	2.44 µM (inactive)	15.2 µM (inactive)	10.6 µM (inactive)	0.406 µM (active)	3.56 µM (inactive)	3.31 µM (inactive)	1.26 µM (inactive)	1.69 µM (inactive)	2.92 µM (inactive)	8 µM (inactive)	3.1 µM (inactive)	3.3 µM (inactive)	4.09 µM (inactive)	5.46 µM (inactive)	1.64 µM (inactive)	1.37 µM (inactive)	6 µM (inactive)
CC[C@@]1(OC(=O)CCC(=O)O)C(=O)OCc2c1cc1n(c2=O)Cc2cc3ccccc3nc2-1	0.0139 µM (active)	0.0208 µM (active)	< 0.01 µM (active)	1.36 µM (inactive)	0.23 µM (active)	0.193 µM (active)	0.467 µM (active)	0.137 µM (active)	3.86 µM (inactive)	0.193 µM (active)	1.23 µM (inactive)	0.0442 µM (active)	0.659 µM (active)	14.6 µM (inactive)	0.127 µM (active)	0.458 µM (active)	0.0395 µM (active)	0.065 µM (active)	0.0556 µM (active)	0.239 µM (active)
N#Cc1[nH]c(=O)n(-c2ccccc2)c1N	> 10 µM (inactive)	> 10 µM (inactive)	> 10 µM (inactive)	> 10 µM (inactive)	> 10 µM (inactive)	> 10 µM (inactive)	> 10 µM (inactive)	> 10 µM (inactive)	> 10 µM (inactive)	> 10 µM (inactive)	> 10 µM (inactive)	> 10 µM (inactive)	> 10 µM (inactive)	> 10 µM (inactive)	> 10 µM (inactive)	> 10 µM (inactive)	> 10 µM (inactive)	> 10 µM (inactive)	> 10 µM (inactive)	> 10 µM (inactive)
COc1ccc2cc(NC(=O)N/N=C\c3ccc([N+](=O)[O-])cc3)ccc2c1	19.5 µM (inactive)	37.6 µM (inactive)	> 100 µM (inactive)	81.8 µM (inactive)	31 µM (inactive)	18.7 µM (inactive)	23.4 µM (inactive)	21.8 µM (inactive)	37.4 µM (inactive)	35.7 µM (inactive)	> 100 µM (inactive)	22.9 µM (inactive)	72.3 µM (inactive)	42.5 µM (inactive)	73.3 µM (inactive)	12.9 µM (inactive)	20.1 µM (inactive)	49.1 µM (inactive)	30.8 µM (inactive)	27.6 µM (inactive)
COC(=O)C(I(OS(=O)(=O)c1ccc(C)cc1)c1ccccc1)=P(c1ccccc1)(c1ccccc1)c1ccccc1	19.3 µM (inactive)	16.6 µM (inactive)	10.3 µM (inactive)	23.7 µM (inactive)	25.1 µM (inactive)	8.39 µM (inactive)	7.94 µM (inactive)	21.2 µM (inactive)	30.1 µM (inactive)	5.04 µM (inactive)	15.1 µM (inactive)	16.8 µM (inactive)	19.5 µM (inactive)	24.7 µM (inactive)	12.2 µM (inactive)	19.2 µM (inactive)	17.5 µM (inactive)	15.9 µM (inactive)	15.8 µM (inactive)	18.9 µM (inactive)
O=C1OCC2OC(=O)c3cc(O)c(O)c(O)c3-c3c(O)c(O)c(O)c4c3C(=O)OC(C2OC(=O)c2cc(O)c(O)c(O)c2-c2c1cc(O)c(O)c2O)C1OC(=O)C2C4=C(O)C(=O)C23Oc2cc(O)c4c(c2[C@H]13)O[C@H](c1ccc(O)c(O)c1)[C@@H](O)C4 (stereo not given in full)	41.7 µM (inactive)	23 µM (inactive)	19.4 µM (inactive)	12.7 µM (inactive)	44.1 µM (inactive)	14.2 µM (inactive)	23.1 µM (inactive)	22.2 µM (inactive)	18.9 µM (inactive)	24.5 µM (inactive)	66.7 µM (inactive)	19.8 µM (inactive)	24.8 µM (inactive)	28.1 µM (inactive)	16 µM (inactive)	25.2 µM (inactive)	19 µM (inactive)	20.7 µM (inactive)	12.6 µM (inactive)	38.5 µM (inactive)
CCN(/C=C1/C(=O)C(c2ccccc2)N(c2ccccc2)C1=O)CC (stereo not given)	> 10 µM (inactive)	> 10 µM (inactive)	> 10 µM (inactive)	> 10 µM (inactive)	> 10 µM (inactive)	> 10 µM (inactive)	> 10 µM (inactive)	> 10 µM (inactive)	> 10 µM (inactive)	> 10 µM (inactive)	> 10 µM (inactive)	> 10 µM (inactive)	> 10 µM (inactive)	> 10 µM (inactive)	> 10 µM (inactive)	> 10 µM (inactive)	> 10 µM (inactive)	> 10 µM (inactive)	> 10 µM (inactive)	> 10 µM (inactive)
Nc1cc(C2CCCc3c2[nH]c2ccccc32)ccc1O (stereo not given)	74.6 µM (inactive)	18.5 µM (inactive)	0.76 µM (active)	44 µM (inactive)	> 100 µM (inactive)	55.3 µM (inactive)	33 µM (inactive)	24.3 µM (inactive)	84.5 µM (inactive)	0.271 µM (active)	> 100 µM (inactive)	36.5 µM (inactive)	20.1 µM (inactive)	69.8 µM (inactive)	6 µM (inactive)	64.7 µM (inactive)	45.9 µM (inactive)	14.3 µM (inactive)	6.19 µM (inactive)	38.5 µM (inactive)
COc1ccc(C2=NN(C(=O)c3ccccc3)C(O)(c3cc(F)c(Cl)cc3Cl)C2)cc1OC (stereo not given)	17.2 µM (inactive)	32.5 µM (inactive)	> 100 µM (inactive)	32.7 µM (inactive)	20.9 µM (inactive)	> 100 µM (inactive)	57.9 µM (inactive)	48.4 µM (inactive)	42.2 µM (inactive)	38 µM (inactive)	49.8 µM (inactive)	42.3 µM (inactive)	> 100 µM (inactive)	34.5 µM (inactive)	> 100 µM (inactive)	30.9 µM (inactive)	55.5 µM (inactive)	50.8 µM (inactive)	73.6 µM (inactive)	31.3 µM (inactive)
CCc1nc(N)nc(N)c1-c1ccc2c(c1)nnn2CCc1ccccc1	22.2 µM (inactive)	7.23 µM (inactive)	7.23 µM (inactive)	21.8 µM (inactive)	45.4 µM (inactive)	38.6 µM (inactive)	19.5 µM (inactive)	4.95 µM (inactive)	26.1 µM (inactive)	13.6 µM (inactive)	31.4 µM (inactive)	12.6 µM (inactive)	14.1 µM (inactive)	30.7 µM (inactive)	8.53 µM (inactive)	13.9 µM (inactive)	10.3 µM (inactive)	23.4 µM (inactive)	4.66 µM (inactive)	4.63 µM (inactive)
